Assay results as given in patent US20110237495A1, “FUNCTIONAL METABOLOMICS COUPLED MICROFLUIDIC CHEMOTAXIS DEVICE AND IDENTIFICATION OF NOVEL CELL MEDIATORS” (The Brigham and Women's Hospital, Inc. Corporate Sponsored …, priority 2008, published 2011).
“Also recorded” adds a separate entry of the source.

Assays:
[1] = test system: leukocyte infiltration in lung tissues; assay: Hind-limb ischemia-reperfusion-induced second-organ (lung) injury, lung MPO by ELISA; type: in vivo, mice; conditions: for percent reduction of MPO found in lungs (FIG. 11), mean±SEM: 1 μg i.v. in vehicle, ischemia-reperfusion
Procedure: To identify the effects of the resolvins and protectins on inflammation resolution, ischemia-reperfusion induced second-organ injury experiments were designed and are illustrated in FIGS. 7A-D. Mice were anesthetized by intraperitoneal injection of pentobarbital (80 mg kg^−1, Nembutal sodium solution NDC 0074-3778-04). Hind-limb ischemia was initiated using tourniquets consisting of a rubber band placed on each hind limb as in ref.^35. Mice were subjected to hind limb ischemia for 1 h, after which the tourniquets were removed to initiate reflow-reperfusion. Resolvins, related compounds and analogs were each administered at 1 μg/mouse (i.e., DHA, RvD1, RvD1 methyl ester, 17-(R/S)-methyl-RvD1 methyl ester, RvE1, or 19-p-fluorophenoxy-RvE1 methyl ester) in vehicle (5 μl ethanol in 120 μl sterile saline) or vehicle alone. They were administered intravenously to the tail vein ˜5 min before the start of the reperfusion period. At the end of this reperfusion period (2 h), the mice were euthanized with an overdose of anesthetic and the lungs were quickly harvested, frozen in liquid nitrogen, and stored at −80° C. The right lungs were homogenized from individual mice and centrifuged, and the tissue levels of myeloperoxidase (MPO) (a leukocyte marker enzyme) in the resulting supernatants, for each experimental protocol, were determined using a mouse MPO enzyme-linked immunosorbent assay (Hycult biotechnology, Cell Sciences, Uden, The Netherlands).
Briefly, as illustrated in the time-course shown in FIG. 7A, hind-limb ischemia was induced in mice by creating tourniquets using a rubber band on each hind limb. After 1 h, the tourniquets were removed and reperfusion ensued. Test compounds (1 μg of DHA, RvD1, RvE1) in vehicle were administered intravenously 5 min before the start of the reperfusion period. At the end of the reperfusion period (2 h), lungs were collected and MPO concentrations were determined by ELISA. FIGS. 7B and C are representative images from histological analysis. FIG. 9B is a photomicrograph showing a hematoxylin/eosin-stained lung from ischemia/reperfusion second organ injury (control). […] Mean±SEM (n=3-5, control; n=12).
Ischemia/reperfusion is a well-appreciated pathophysiologic mechanism of organ injury and local tissue damage that can be initiated by excessively activated PMN. This system in the mouse, models the second organ injury observed in humans following tourniquet release of vessels in surgery involving, for example, extremities^41, 42. Remote or second organ injury can also occur when blood vessels are occluded, or during certain surgical procedures that create local ischemia and remote organ injury that has many features of rapid, acute inflammation and tissue damage^35. On release of the tourniquet occlusion, reflow is initiated and activated PMN rapidly infiltrate secondary organs, causing damage^35. Here, the inventors evaluated RvD1 in a remote organ injury system, i.e., hind-limb ischemia/reperfusion, to assess whether RvD1's ability to inhibit PMN migration, in vitro, in microchambers (FIGS. 8A-C, 9-11) can be predictive of their effect to reduce PMN mediated tissue and organ damage in vivo. […] The extent of lung tissue injury is associated with PMN activation and organ infiltration^35.

human PMN = assay: Microfluidic chemotaxis device: PMN chemotaxis in IL-8 gradient; type: cell-based; conditions: 10 nM (DHA equimolar), PMN captured on P-selectin from a drop of whole blood, n=12
From the text: A new microvolume chemotaxis device was designed using polyethylene glycol (PEG) that allows testing the chemotactic function of neutrophils and their responses to these novel lipid mediators immediately after being separated from whole blood within the device. One exemplary embodiment of the device is illustrated in FIGS. 8A-C. In this embodiment, the microvolume chemotaxis device with microstructured valves was fabricated using “lab-on-chip” microfabrication technologies^36. Briefly, two silicon wafers were coated with a 50-μm-thick layer of SU8 photoresist (MicroChem, Newton, Mass.). After exposure to UV light through a mylar mask in a mask, aligner and development following manufacturer recommendations, 50 μm-tall features were produced on top of the silicon wafers. Subsequently, poly (dimethylsiloxane) (PDMS, Dow Corning, Midland, Mich.) was prepared by mixing two components in 10:1 ratio, as recommended by the manufacturer. […]
After assembly, different sections of the device were chemically modified for specific functionalities. […] The surface of the chemotaxis chamber, where neutrophils were captured and assessed for their chemotactic responses, were modified by physical adsorption of P-selectin (10 ng/mL for 30 minutes, R&D Systems, Minneapolis, Minn.) immediately before use. […]

[2] = Zymosan A-induced murine peritonitis: appearance of i.v. labeled omega-3 fatty acids in peritoneal exudates; type: in vivo, male FVB mice; conditions: for time of maximum level in peritoneal exudate: 1 μg/mouse i.v. just before i.p. zymosan A, GC-MS; for exudate level at 48 h compared with 24 h: 1 μg/mouse i.v., p<0.05
Procedure: Male FVB mice were anesthetized with isoflurane (Hospira Inc, Lake Forest, Ill.). Both 1 μg d5-DHA (4Z,7Z,10Z,13Z,16Z,19Z-docosahexaenoic-21,21,22,22,22-d5 acid: Cayman Chemical, Ann Arbor, Mich.) and 1 μg d5-EPA (5Z,8Z,11Z,14Z,17Z-eicosapentaenoic-19,19′,20,20,20-d5 acid: Cayman Chemical, Ann Arbor, Mich.) in 100 μl of 2% ethanol (v/v) in saline or vehicle alone were administered by bolus tail vein injection. Approximately five minutes later, peritonitis was initiated with intraperitoneal administration of 1 mg of zymosan A (Sigma Aldrich, St. Louis, Mo.). At indicated time intervals, mice were euthanized with an overdose of isoflurane, and peritoneal exudates were collected by lavage with 5 ml of DPBS without either Ca^2+ or Mg^2+. Exudate cells and supernatants were separated by centrifugation (10 min, 1000 rpm, 4° C.), aliquots of supernatants were collected, and 4 volumes of cold acetone were added to precipitate proteins. Serum albumin and total protein levels were determined^32.
Briefly, FVB mice (6-8 wk) received d5-EPA and d5-DHA i.v. (1 μg/mouse of each) (FIG. 4D, top panel) just before i.p. challenge with zymosan A (1 mg/ml/mouse) (FIG. 4D, middle panel). Peritoneal exudates were collected at 0, 2, 4, 12, 24 and 48 h and taken to solid phase extraction. Eluate fractions were treated with diazomethane and taken to GC-MS. Results represent the mean±SEM from n=3, separate mice. Mass spectra of d5-EPA methyl ester and d5-DHA methyl ester. d5-EPA and d5-DHA were derivatized into methyl esters and submitted to GC-MS for analysis shown in FIGS. 4A-C.
For tracer experiments, mice were fasted overnight (˜18 h) before 500 nCi of [1-^14C]-DHA (docosahexaenoic acid 4,7,10,13,16,19-[1-^14C], American Radiolabeled Chemicals Inc, St. Louis, Mo.) was injected via the tail vein. At indicated time intervals, exudates were collected (vide supra) and the radioactivity was determined using a scintillation counter (Multi-purpose scintillation counter LS6500, Beckman Coulter, Fullerton, Calif.).
Upon collection of peritoneal exudates, 2 volumes of cold methanol and internal standard (500 ng/sample, trans-parinaric acid, Molecular Probe, Eugene, Oreg.) were added to exudates, which were stored at −20° C. for 1 hr. After centrifugation, samples were diluted and applied to C18 cartridge columns (Extract-Clean EV SPE, Alltech, Deerfield, Ill.). Lipids were extracted using hexane and methyl formate and each fraction was collected and its unesterified fatty acids converted to corresponding methyl ester using diazomethane treatment^34. The esters were suspended in hexane, and then injected in GC-MS. Electron-impact GC-MS was carried out using an HP 6890 GC system with HP5973 Mass Selective Detector (Hewlett-Packard) equipped with an HP-5MS capillary column (0.25 mm ID×30 m, 0.25 μm, Agilent Technologies Inc., Wilmington, Del.) operating at a mass range from m/z 70 to 800. The ionization voltage was 70 eV and the ion source temperature was 230° C. Chromatography was carried out using a column temperature maintained at 150° C. for 2 min and then programmed to increase 10° C./min up to 230° C., 5° C./min up to 280° C., and then maintained at 280° C. for 10 min. EPA and DHA were separated and the area beneath each chromatographic peak of their deuterium labels was obtained by integration using a Chemstation integrator Version D.02.00.275 (Agilent Technologies Inc). […] The inventors selected the ω-3 ion ((CH)3CH2(CH)2CD2CD3=113) for both d5-EPA (FIG. 4A) and d5-DHA (FIG. 4B) methyl ester and M^+(290) for methyl parinate (FIG. 4C). Identification was conducted by examining and retention times as in FIGS. 4A-C (d5-EPA-methyl ester: 11.7 min FIG. 4A, inset, methyl-parinarate; 13.1 min (FIG. 4C, and d5-DHA; 13.9 min, FIG. 4B, inset). Calibration curves were obtained for each: d5-EPA; y=0.0016x+0.0313 (r^2=0.9954, 50-500 ng/ml), d5-DHA; y=0.0015x-0.0524 (r^2=0.9809, 50-500 ng/ml). […]

| SMILES | percent reduction of MPO found in lungs (FIG. 11), mean±SEM [1] [%] | time of maximum level in peritoneal exudate [2] [h] | exudate level at 48 h compared with 24 h [2] | also measured |
| --- | --- | --- | --- | --- |
| CC/C=C\CC(C)(O)/C=C/C=C\C=C\C=C\[C@@H](O)[C@@H](O)C/C=C\CCC(=O)OC (mixture of isomers) [17-(R/S)-methyl-RvD1-Me, 17-(R/S)-methyl-RvD1 carboxymethyl ester] | 29.3 ±6.4 | – | – | – |
| CC/C=C\C[C@H](O)/C=C/C=C\C=C\C=C\[C@@H](O)[C@@H](O)C/C=C\CCC(=O)O [RvD1, 7S,8R,17S-trihydroxy-4Z,9E,11E,13Z,15E,19Z-docosahexaenoic acid] | – | – | – | effect on PMN migration (chemotaxis) in IL-8 gradient (human PMN): essentially completely stop PMN movements; also recorded: chemotaxis immediately ceased; reduction of lung MPO concentration (FIG. 7D), mean±SEM ([1]; 1 μg i.v. 5 min before reperfusion, lungs collected after 2 h reperfusion): 47.5±2.4; reduction of leukocyte infiltration ([1]; 1 μg/mouse, ischemia/reperfusion injury): ~50% |
| CC/C=C\C[C@H](O)/C=C/C=C\C=C\C=C\[C@@H](O)[C@@H](O)C/C=C\CCC(=O)OC [RvD1-Me, RvD1 carboxymethyl ester] | 22.9 ±6.8 | – | – | – |
| CC/C=C\C/C=C\C/C=C\C/C=C\C/C=C\C/C=C\CCC(=O)O [^14C-DHA, docosahexaenoic acid 4,7,10,13,16,19-[1-^14C]] | – | – | – | time at which 14C label reached maximal levels in exudate ([2]; 500 nCi i.v., mice fasted overnight, scintillation counting): 1 h; effect on leukocyte trafficking (FACS analysis of exudates) ([2]; tracer levels i.v.): did not reduce leukocyte trafficking |
| [2H]C([2H])([2H])C([2H])([2H])/C=C\C/C=C\C/C=C\C/C=C\C/C=C\C/C=C\CCC(=O)O [d5-DHA, 4Z,7Z,10Z,13Z,16Z,19Z-docosahexaenoic-21,21,22,22,22-d5 acid] | – | 2 | significantly greater than at 24 h | – |
| [2H]C([2H])([2H])C([2H])([2H])/C=C\C/C=C\C/C=C\C/C=C\C/C=C\CCCC(=O)O [d5-EPA, 5Z,8Z,11Z,14Z,17Z-eicosapentaenoic-19,19′,20,20,20-d5 acid] | – | 4 | significantly greater than at 24 h | – |
